“Also recorded” adds a separate entry of the source. Like-named read-outs stand apart in the source and are kept apart here.
Experiments:
[1] = system: P. falciparum chloroquine-sensitive 3D7 strain; assay: Antiplasmodial assay, microdilution in vitro, flow cytometry; format: cell-based, Plasmodium falciparum; conditions: for IC50: Plasmodium falciparum; for Antiplasmodial activity grade in words: P. falciparum 3D7
Procedure: The strains were maintained in human erythrocytes in a gas mixture containing 5% O2, 5% CO2 and 90% N2 [24]. The culture was synchronised by 10% sorbitol treatment. The antimalarial activity was measured using the microdilution technique in vitro. […] Samples were dissolved in water, dimethylsulfoxide (DMSO) or methanol and serially diluted with the culture medium. To evaluate parasitemia, Giemsa staining and flow cytometric analysis were used. The concentration of the drug required to inhibit parasite growth was determined by comparing the fluorescence incorporated into the treated and untreated cultures (control). The concentration causing 50% inhibition (IC50) was determined from the drug concentration response curve.

HEK293T cells = assay: Cytotoxicity assay, dihydroethidium staining, flow cytometry; format: cell-based, human; conditions: for Cytotoxicity judgement in words / IC50: HEK293T; for Cytotoxicity judgement in words: tested concentrations 0.001-100 µM; for IC50: Homo sapiens, HEK-293T; for Selectivity Index (SI) 48 h: HEK293T IC50 versus P. falciparum 3D7 IC50, 48 h
Procedure: (§1) Human embryonic kidney (HEK293T) cells were cultured in surface area 75 cm^2 (Greiner Bio-One, Frickenhausen, Germany) vented tissue culture flasks at 37 °C in a humidified atmosphere containing 5% CO2 in Dulbecco’s modified essential medium (Gibco/Life Technologies, Grand Island, NY, USA) supplemented with 10% (v/v) foetal bovine serum, 100 U/mL penicillin and 100 µg/mL streptomycin. After 24 h, 50 µl of each drug was added with 0.5% DMSO or methanol to a single well. The cells were incubated with the test drugs for an additional 24 and 48 h and then harvested with trypsin, gently pelleted by centrifugation and re-suspended in PBS. The cells were stained with dihydroethidium solution (10 mg/mL in phosphate buffered saline), gently vortexed and incubated for 40 min at 37 °C in the dark. Ten thousand gated events were acquired for each sample (FACSCalibur BD and CellQuest software was used for analysis).

[2] = as above; format: cell-based, human; conditions: human
Procedure: as §1

Plasmodium 3D7 strain = system: Plasmodium 3D7 strain; parameters: method as in PMID 14697777; conditions: 3D7 strain ref 7; read-out: IC50 anti-Plasmodium 3D7 strain; cited from earlier work
P. berghei = system: P. berghei; parameters: method as in PMID 10190183; conditions: 250 mg/kg/day ref 6; cited from earlier work
[3] = system: P. falciparum chloroquine-sensitive Thai strain; parameters: method as in PMID 17967541; conditions: chloroquine-sensitive Thai strain ref 10; cited from earlier work
[4] = system: P. falciparum (3D7) isolated parasites; assay: Cytosolic calcium in isolated parasites loaded with Fluo4/AM (spectrofluorimetry); format: cell-based, Plasmodium falciparum; conditions: 2c 100 µM
Procedure: Erythrocytes (RBCs) infected by P. falciparum (3D7) at the trophozoite stage were lysed with 10 mg/mL saponin (in phosphate-buffered saline) in the presence of 20 µg/mL protease inhibitors (pepstatin A, leupeptin, antipain and chymostatin) and benzamidine (0.5 mmol/L). Erythrocyte membranes were then removed through centrifugation (8700 rpm for 10 min at 4 °C). The parasites were washed three times in buffer M (116 mM NaCl, 5.4 mM KCl, 0.8 mM MgSO4, 5.5 mM D-glucose, 50 mM MOPS, pH 7.3) with CaCl2 (2 mM). The parasites were then re-suspended in the same buffer with Fluo4-AM (5 μM) probenecid (1.8 mM), an inhibitor of organic anion transport (to prevent dye sequestration and release), […] protease inhibitors (pepstatin A, leupeptin, antipain and chymostatin) and benzamidine (0.5 mmol/L) for 50 min at 37 °C. The parasite suspension was then washed three times with buffer M. Spectrofluorimetric measurements were performed in a Shimadzu RF-5301 PC instrument at 37 °C with isolated P. falciparum (3D7) parasites (10^8 cells mL^−1) incubated with MOPS buffer in a 1 mL cuvette. Compound 2c (100 μM) and THG (10 μM) were added during time course experiments, and excitation/emission wavelengths were adjusted to 505/530 nm for Fluo4-AM. Methanol (0.05%) was used as a control. […]

[5] = 24 h, read-out: IC50 (µM) HEK293T 24 h
[6] = 48 h, read-out: IC50 (µM) HEK293T 48 h
[7] = chloroquine-sensitive 3D7 strain, 48 h incubation, n = 3, read-out: IC50 (µM) P. falciparum 3D7
[8] = chloroquine-sensitive 3D7 strain, 48 h incubation, values in nM, read-out: IC50 P. falciparum 3D7

Row | IC50 [1, 7] [µM] | SMILES | IC50 (HEK293T cells; [5]) [µM] | IC50 (HEK293T cells; [6]) [µM] | Antiplasmodial activity grade in words [1] | Selectivity Index (SI) 48 h (HEK293T cells) | other results
1 | – | CCN(CC)CCCC(C)Nc1ccnc2cc(Cl)ccc12 (centres unmarked) [chloroquine, reference compound] | – | – | – | – | IC50 ([1]; 3D7, 48 h, read-out: IC50 P. falciparum 3D7): 0.029 µM
2 | 15 | CC(=O)O[C@H]1CC[C@@]2(C)C(CC[C@]3(C)C2CC=C2C4[C@@H](C)[C@H](C)CC[C@]4(C(=O)NCCCN4CCN(CCCNC(=O)OC(C)(C)C)CC4)CC[C@]23C)C1(C)C (some centres unmarked) [2b] | – | – | – | – | –
3 | 18 | C=C(C)[C@@H]1CC[C@]2(C(=O)O)CC[C@]3(C)[C@H](CC[C@@H]4[C@@]5(C)CC[C@H](O)C(C)(C)[C@@H]5CC[C@]43C)[C@@H]12 [compound 1, Betulinic acid] | – | – | moderate activity | – | IC50 (Plasmodium 3D7 strain): 13.9 µM; Efficacy in murine malarial model of P. berghei (P. berghei): ineffective
4 | – | C=C(C)[C@@H]1CC[C@]2(C(=O)OC)CC[C@]3(C)[C@H](CC[C@@H]4[C@@]5(C)CC[C@H](O)C(C)(C)[C@@H]5CC[C@]43C)[C@@H]12 [methyl betulinate, reference compound] | – | – | – | – | IC50 (Plasmodium 3D7 strain): 7 µM
5 | 0.175 | CC(=O)OC1CCC2(C)C(CCC3(C)C2CC=C2C4C(C)C(C)CCC4(C(=O)NCCCN4CCN(CCCN)CC4)CCC23C)C1(C)C (centres unmarked) [2c] | 4 | 4 | excellent activity | 23 | IC50 ([2]; HEK293T cells, HEK293T, time not stated, read-out: IC50 cytotoxicity HEK293T): 4 µM; Cytotoxicity judgement in words (HEK293T cells): non-toxic; IC50 [3]: 0.167 µM; Effect on parasite calcium homeostasis, in words ([4]; followed by THG 10 µM): can modulate parasite calcium homeostasis; also recorded: led to an increase in intracellular ion concentrations in P. falciparum; Ca2+ concentration, Fluo4/AM fluorescence after addition of compound ([4]; isolated parasites 10^8 cells mL-1, mean ± SEM, n = 9, P = 0.0004 vs methanol 0.05%): 104.9 a.u.; IC50 [1, 8]: 0.175 to 0.22 µM
6 | 14 | CC(=O)O[C@H]1CC[C@@]2(C)C(CC[C@]3(C)C2CC=C2C4[C@@H](C)[C@H](C)CC[C@]4(C(=O)O)CC[C@]23C)C1(C)C (some centres unmarked) [2a] | – | – | – | – | –
7 | 36 | C[C@H]1[C@H](C)CC[C@]2(C(=O)O)CC[C@]3(C)C(=CC[C@@H]4[C@@]5(C)CC[C@H](O)C(C)(C)[C@@H]5CC[C@]43C)[C@H]12 [compound 2, Ursolic acid] | – | – | inactive | – | –

Row | SMILES | IC50 [1, 7] [µM] | IC50 (HEK293T cells; [5]) [µM] | IC50 (HEK293T cells; [6]) [µM] | Antiplasmodial activity grade in words [1] | Selectivity Index (SI) 48 h (HEK293T cells) | other results
8 | C=C(C)[C@@H]1CC[C@]2(C(=O)O)CC[C@]3(C)[C@H](CC[C@@H]4[C@@]5(C)CC[C@H](OC(C)=O)C(C)(C)[C@@H]5CC[C@]43C)[C@@H]12 [1a, 3-O-Acetylbetulinic acid] | 4 | > 100 | > 100 | good activity | – | Cytotoxicity judgement in words (HEK293T cells): not toxic; also recorded: not cytotoxic at the tested concentrations
9 | C=C(C)[C@@H]1CC[C@]2(C(=O)NCCCN3CCN(CCCNC(=O)OC(C)(C)C)CC3)CC[C@]3(C)C(CCC4[C@@]5(C)CC[C@H](OC(C)=O)C(C)(C)C5CC[C@]43C)C12 (some centres unmarked) [1b, N-{3-[4-(3-Aminopropyl)piperazinopropyl]terbutylcarbamate}-3-acetylbetulinamide] | 5 | 4 | 4 | good activity | 0.8 | IC50 [2]: 4 µM; melting point: 129 °C
10 | C=C(C)[C@@H]1CC[C@]2(C(=O)NCCCN3CCN(CCCN)CC3)CC[C@]3(C)C(CCC4[C@@]5(C)CC[C@H](OC(C)=O)C(C)(C)C5CC[C@]43C)C12 (some centres unmarked) [1c, N-{3-[4-(3-aminopropyl)piperazinyl]propyl}-3-acetylbetulinamide] | 0.22 | 4 | 4 | excellent activity | 18 | IC50 [2]: 4 µM; melting point: 120 °C; IC50 [1, 8]: 0.175 to 0.22 µM

Reference: article PMC6268073, “Synthesis and Antiplasmodial Activity of Betulinic Acid and Ursolic Acid Analogues” (Molecules, 2012)
